From the Kinase Knowledgebase extract (Sharma et al. 2016)

Molecular target: EGFR (UniProt P00533)
Sequence (P00533 whole entry, looked up): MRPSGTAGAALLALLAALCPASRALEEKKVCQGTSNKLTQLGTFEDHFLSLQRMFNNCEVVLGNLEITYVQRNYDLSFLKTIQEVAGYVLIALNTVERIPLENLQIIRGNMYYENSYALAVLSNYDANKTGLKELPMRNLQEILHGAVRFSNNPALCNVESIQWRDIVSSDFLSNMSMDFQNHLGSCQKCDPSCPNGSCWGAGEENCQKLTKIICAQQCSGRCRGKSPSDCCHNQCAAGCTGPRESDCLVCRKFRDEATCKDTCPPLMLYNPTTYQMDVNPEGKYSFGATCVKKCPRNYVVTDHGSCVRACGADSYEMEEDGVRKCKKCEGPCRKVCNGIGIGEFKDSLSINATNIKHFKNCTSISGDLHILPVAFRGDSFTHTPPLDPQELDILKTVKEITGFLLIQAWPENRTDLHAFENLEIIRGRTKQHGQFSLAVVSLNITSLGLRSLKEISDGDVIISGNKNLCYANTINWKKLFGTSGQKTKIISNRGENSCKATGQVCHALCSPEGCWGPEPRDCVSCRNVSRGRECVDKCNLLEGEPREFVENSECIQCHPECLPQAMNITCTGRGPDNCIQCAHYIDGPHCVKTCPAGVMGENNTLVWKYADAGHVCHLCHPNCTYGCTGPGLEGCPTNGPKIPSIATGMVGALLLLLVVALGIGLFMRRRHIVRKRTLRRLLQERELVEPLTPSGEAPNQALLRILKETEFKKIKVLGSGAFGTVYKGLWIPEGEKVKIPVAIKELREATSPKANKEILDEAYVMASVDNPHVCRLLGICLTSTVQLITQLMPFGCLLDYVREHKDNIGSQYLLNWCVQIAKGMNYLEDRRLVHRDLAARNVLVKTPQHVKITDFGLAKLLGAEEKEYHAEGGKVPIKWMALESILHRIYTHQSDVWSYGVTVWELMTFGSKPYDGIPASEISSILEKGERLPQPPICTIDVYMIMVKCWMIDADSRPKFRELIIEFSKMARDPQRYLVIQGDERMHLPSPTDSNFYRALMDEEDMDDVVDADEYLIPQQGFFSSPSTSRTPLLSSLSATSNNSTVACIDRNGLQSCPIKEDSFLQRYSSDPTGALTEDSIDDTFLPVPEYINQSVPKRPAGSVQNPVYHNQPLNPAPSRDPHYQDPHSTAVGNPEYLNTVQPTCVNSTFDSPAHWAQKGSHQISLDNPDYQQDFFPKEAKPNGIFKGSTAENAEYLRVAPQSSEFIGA

| Structure (SMILES) | IC50 [nM] |
| --- | --- |
| COc1cc2c(NS(=O)(=O)c3ccc(C)cc3)ncnc2cc1OCCCN1CCOCC1 | ≤ 1000 |
| COc1cc2c(NS(=O)(=O)c3cn(C)cn3)ncnc2cc1OCCN1CCCCC1 | ≤ 1000 |
| COc1cc2c(NS(=O)(=O)c3ccc(C)cc3)ncnc2cc1OC1CCN(C)CC1 | ≤ 1000 |
| COc1cc2c(NS(=O)(=O)c3ccc4ccccc4c3)ncnc2cc1OCCN1CCN(C)CC1 | ≤ 1000 |
| COc1cc2c(NS(=O)(=O)c3c(C)cc(C)cc3C)ncnc2cc1OCCCN(C)C | ≤ 1000 |
| COc1cc2c(NS(=O)(=O)c3ccc(Cl)cc3)ncnc2cc1OCCCN(C)C | ≤ 1000 |
| COc1ccc(S(=O)(=O)Nc2ncnc3cc(OCCN4CCN(C)CC4)c(OC)cc23)cc1OC | ≤ 1000 |
| CCN(CC)CCOc1cc2ncnc(NS(=O)(=O)c3ccc(Sc4cccs4)s3)c2cc1OC | ≤ 1000 |
| COc1cc2c(NS(=O)(=O)c3cc(Cl)c(Cl)s3)ncnc2cc1OCCCN(C)C | ≤ 1000 |
| COc1cc2c(NS(=O)(=O)c3cccc(Cl)c3)ncnc2cc1OCCN1CCCCC1 | ≤ 1000 |
| COc1cc2c(NS(=O)(=O)c3ccc(F)cc3)ncnc2cc1OCCN1CCCCC1 | ≤ 1000 |
| COc1cc2c(NS(=O)(=O)c3ccccc3Cl)ncnc2cc1OCCN1CCOCC1 | ≤ 1000 |
| COc1cc2c(NS(=O)(=O)c3ccc(Cl)cc3)ncnc2cc1OCCCN1CCOCC1 | ≤ 1000 |
| COc1cc2c(NS(=O)(=O)c3ccccc3)ncnc2cc1OCCN1CCCCC1 | ≤ 1000 |
| COc1cc2c(NS(=O)(=O)c3ccc(Cl)s3)ncnc2cc1OCCN1CCN(C)CC1 | ≤ 1000 |
| COc1cc2c(NS(=O)(=O)c3ccccc3Br)ncnc2cc1OCCCN(C)C | ≤ 1000 |
| COc1cc2c(NS(=O)(=O)c3cc(Cl)c(Cl)s3)ncnc2cc1OCCN1CCN(C)CC1 | ≤ 1000 |
| COc1cc2c(NS(=O)(=O)c3cccc4cccnc34)ncnc2cc1OCCCN(C)C | ≤ 1000 |
| COc1cc2c(NS(=O)(=O)c3ccc(Cl)cc3)ncnc2cc1OCCN1CCCCC1 | ≤ 1000 |
| COc1cc2c(NS(=O)(=O)Cc3ccccc3)ncnc2cc1OCCN1CCCCC1 | ≤ 1000 |
| CCN(CC)CCOc1cc2ncnc(NS(=O)(=O)c3ccccc3C)c2cc1OC | ≤ 1000 |
| COc1cc2c(NS(=O)(=O)Cc3ccccc3)ncnc2cc1OCCN1CCN(C)CC1 | ≤ 1000 |
| COc1cc2c(NS(=O)(=O)c3ccccc3)ncnc2cc1OCCN1CCN(C)CC1 | ≤ 1000 |
| COc1cc2c(NS(=O)(=O)c3cccc4cccnc34)ncnc2cc1OCCN1CCCCC1 | ≤ 1000 |
| COc1cc2c(NS(=O)(=O)c3cccc(Br)c3)ncnc2cc1OCCN1CCN(C)CC1 | ≤ 1000 |

| Structure (SMILES) | IC50 [nM] |
| --- | --- |
| COc1ccc(OC)c(S(=O)(=O)Nc2ncnc3cc(OCCN4CCN(C)CC4)c(OC)cc23)c1 | ≤ 1000 |
| COc1cc2c(NS(=O)(=O)c3ccccc3Br)ncnc2cc1OCCN1CCOCC1 | ≤ 1000 |
| COc1cc2c(NS(=O)(=O)c3ccc(F)cc3)ncnc2cc1OC1CCN(C)CC1 | ≤ 1000 |
| COc1cc2c(NS(=O)(=O)c3ccccc3Br)ncnc2cc1OC1CCN(C)CC1 | ≤ 1000 |
| COc1cc2c(NS(=O)(=O)c3cc(Cl)cc(Cl)c3)ncnc2cc1OCCCN1CCOCC1 | ≤ 1000 |
| CCN(CC)CCOc1cc2ncnc(NS(=O)(=O)c3ccc(C)cc3)c2cc1OC | ≤ 1000 |
| CCN(CC)CCOc1cc2ncnc(NS(=O)(=O)c3ccc(C(C)(C)C)cc3)c2cc1OC | ≤ 1000 |
| COc1cc2c(NS(=O)(=O)c3cc(Cl)c(Cl)s3)ncnc2cc1OCCN1CCOCC1 | ≤ 1000 |
| COc1ccc(S(=O)(=O)Nc2ncnc3cc(OC4CCN(C)CC4)c(OC)cc23)cc1OC | ≤ 1000 |
| COc1cc2c(NS(=O)(=O)c3ccc(C(F)(F)F)cc3)ncnc2cc1OCCN1CCOCC1 | ≤ 1000 |
| COc1cc2c(NS(=O)(=O)c3ccc(Cl)s3)ncnc2cc1OCCN1CCOCC1 | ≤ 1000 |
| COc1cc2c(NS(=O)(=O)c3ccc(F)cc3)ncnc2cc1OCCCN1CCOCC1 | ≤ 1000 |
| COc1cc2c(NS(=O)(=O)c3ccc(Br)cc3)ncnc2cc1OCCN1CCOCC1 | ≤ 1000 |
| COc1ccc(S(=O)(=O)Nc2ncnc3cc(OCCN4CCOCC4)c(OC)cc23)cc1 | ≤ 1000 |
| COc1cc2c(NS(=O)(=O)Cc3ccccc3)ncnc2cc1OC1CCN(C)CC1 | ≤ 1000 |
| COc1cc2c(NS(=O)(=O)c3ccccc3Br)ncnc2cc1OCCN1CCCCC1 | ≤ 1000 |
| COc1ccc(S(=O)(=O)Nc2ncnc3cc(OCCN4CCN(C)CC4)c(OC)cc23)cc1 | ≤ 1000 |
| COc1cc2c(NS(=O)(=O)c3c(C)noc3C)ncnc2cc1OCCN1CCOCC1 | ≤ 1000 |
| CCN(CC)CCOc1cc2ncnc(NS(=O)(=O)c3cc(OC)ccc3OC)c2cc1OC | ≤ 1000 |
| CCN(CC)CCOc1cc2ncnc(NS(=O)(=O)c3ccccc3Cl)c2cc1OC | ≤ 1000 |
| COc1cc2c(NS(=O)(=O)c3ccc(Br)cc3)ncnc2cc1OC1CCN(C)CC1 | ≤ 1000 |
| CCN(CC)CCOc1cc2ncnc(NS(=O)(=O)c3cccc(Br)c3)c2cc1OC | ≤ 1000 |
| COc1cc2c(NS(=O)(=O)c3cc(Cl)cc(Cl)c3)ncnc2cc1OCCN1CCOCC1 | ≤ 1000 |
| COc1cc2c(NS(=O)(=O)Cc3ccccc3)ncnc2cc1OCCCN(C)C | ≤ 1000 |
